Measurements: ChEMBL document CHEMBL4354827, “Discovery of Novel, Potent, Brain-Permeable, and Orally Efficacious Positive Allosteric Modulator of α7 Nicotinic Acetylcholine Receptor [4-(5-(4-Chlorophenyl)-4-methyl-2-propionylthiophen-3-yl)benzenesulfonamide]: Structure-Activity Relationship and Preclinical Characterization” (J Med Chem, 2020)

Legend:
Rattus norvegicus [1] = assay: Improvement in social recognition time delay-induced Sprague-Dawley rat model of amnesia assessed as reduction in recognition index at 0.50 mg/kg, po for 7 days and measured on day 9 (reference value: 1.05); type: functional
Rattus norvegicus [2] = assay: Memory enhancement effect in time-delay induced Wistar rat model of amnesia assessed as increase in discrimination index at 0.15 mg/kg, po for 7 days and measured on day 8 by novel object recognition test (reference value: 0.12); type: functional
Rattus norvegicus [3] = assay: Improvement in social recognition scopolamine-induced Sprague-Dawley rat model of amnesia assessed as reduction in recognition index 3 mg/kg, po administered as single dose prior to 1 hr training and measured after 30 mins (reference value: 0.9); type: functional
Rattus norvegicus [4] = assay: Memory enhancement effect in scopolamine-induced Wistar rat model of amnesia assessed as exploration time for familiar object in retention trial at 0.5 mg/kg, po for 7 days and measured on day 8 by novel object recognition test (reference value: 8.59 sec); type: functional
[5] = Drug concentration in Wistar rat brain at 10 mg/kg, po after 24 hrs by LC-MS/MS analysis; type: ADME, organism-based; conditions: read-out: Drug uptake
Rattus norvegicus [6] = assay: Improvement in social recognition scopolamine-induced Sprague-Dawley rat model of amnesia assessed as reduction in recognition index at 0.05 mg/kg, po for 7 days measured after 24 hrs (reference value: 0.93); type: functional
Rattus norvegicus [7] = assay: Memory enhancement effect in scopolamine-induced Wistar rat model of amnesia assessed as increase in novel object discrimination index at 0.5 mg/kg, po administered as single dose and measured on day 9 by novel object recognition test (reference value: 0.21); type: functional
[8] = Half life in Beagle dog at 10 mg/kg, po after 0.25 to 144 hrs by LC-MS/MS analysis; type: ADME, organism-based, Canis lupus familiaris; conditions: in vivo
[9] = Protein binding in human plasma at 5 uM incubated for 16 hrs under shaking condition by LC/MS/MS based rapid equilibrium dialysis method; type: ADME, cell-free; conditions: read-out: PPB (converted)
[10] = Elimination half life in human at 7.5 to 100 mg; type: ADME; conditions: read-out: beta t1/2
Rattus norvegicus [11] = assay: Memory enhancement effect in time-delay induced Wistar rat model of amnesia assessed as exploration time for object2 in acquisition trial at 0.05 mg/kg, po for 7 days and measured on day 8 by novel object recognition test (reference value: 11.76 sec); type: functional
Rattus norvegicus [12] = assay: Memory enhancement effect in scopolamine-induced Wistar rat model of amnesia assessed as exploration time for familiar object in retention trial at 0.5 mg/kg, po administered as single dose and measured on day 9 by novel object recognition test (reference value: 8.59 sec); type: functional
[13] = Cmax in Wistar rat brain at 10 mg/kg, po after 1 to 144 hrs by LC-MS/MS analysis; type: ADME, organism-based; set-up: dose 10 mg/kg, route oral
Rattus norvegicus [14] = assay: Improvement in social recognition time delay-induced Sprague-Dawley rat model of amnesia assessed as reduction in recognition index at 0.15 mg/kg, po for 7 days and measured on day 9 (reference value: 1.05); type: functional
[15] = Brain to plasma permeability coefficient, Kp in Wistar rat at 10 mg/kg, po after 8 hrs by LC-MS/MS analysis; type: ADME, organism-based
[16] = AUCt in Wistar rat plasma at 10 mg/kg, po after 1 to 144 hrs by LC-MS/MS analysis; type: ADME, organism-based
[17] = Drug level in scopolamine-induced Sprague-Dawley rat plasma at 0.15 mg/kg, po for 7 days; type: ADME, organism-based
Rattus norvegicus [18] = assay: Memory enhancement effect in scopolamine-induced Wistar rat model of amnesia assessed as increase in exploration time for novel object in retention trial at 0.15 mg/kg, po administered as single dose and measured on day 9 by novel object recognition test (reference value: 12.09 sec); type: functional
[19] = Tmax in Wistar rat at 10 mg/kg, po after 0.25 to 144 hrs by LC-MS/MS analysis; type: ADME, organism-based; conditions: in vivo
Rattus norvegicus [20] = assay: Memory enhancement effect in time-delay induced Wistar rat model of amnesia assessed as exploration time for object1 in acquisition trial at 3 mg/kg, po administered as single dose and measured on day 8 by novel object recognition test (reference value: 13.95 sec); type: functional
Rattus norvegicus [21] = assay: Memory enhancement effect in time-delay induced Wistar rat model of amnesia assessed as exploration time for object2 in acquisition trial at 1 mg/kg, po administered as single dose and measured on day 8 by novel object recognition test (reference value: 16.33 sec); type: functional
Rattus norvegicus [22] = assay: Improvement in social recognition scopolamine-induced Sprague-Dawley rat model of amnesia assessed as increase in reduction in social investigation time at 0.15 mg/kg, po for 7 days measured after 24 hrs (Rvb =6.59%); type: functional; set-up: scale not given: the % may be the effect or the level left
[23] = Metabolic stability in rat liver microsomes assessed as compound remaining at 1 uM preincubated for 5 mins followed by NADPH addition and measured after 30 mins by LC-MS/MS analysis; type: ADME, Microsome; conditions: read-out: Stability
[24] = Drug concentration in Wistar rat plasma at 10 mg/kg, po after 4 hrs by LC-MS/MS analysis; type: ADME, organism-based
[25] = Brain to plasma permeability coefficient, Kp in Wistar rat at 10 mg/kg, po after 24 hrs by LC-MS/MS analysis; type: ADME, organism-based
[26] = AUClast in BALB/c mouse at 10 mg/kg, po after 0.25 to 144 hrs by LC-MS/MS analysis; type: ADME, organism-based; set-up: dose 10 mg/kg, time upper 144 hr, time lower 0.25 hr, route oral; conditions: in vivo
[27] = Drug level in scopolamine-induced Sprague-Dawley rat brain at 0.05 mg/kg, po for 7 days; type: ADME, organism-based; conditions: read-out: Drug uptake
[28] = AUClast in Beagle dog at 10 mg/kg, po after 0.25 to 144 hrs by LC-MS/MS analysis; type: ADME, organism-based, Canis lupus familiaris; set-up: time upper 144 hr, dose 10 mg/kg, time lower 0.25 hr, route oral; conditions: in vivo
[29] = Drug concentration in Wistar rat brain at 10 mg/kg, po after 48 hrs by LC-MS/MS analysis; type: ADME, organism-based; conditions: read-out: Drug uptake
Rattus norvegicus [30] = assay: Memory enhancement effect in time-delay induced Wistar rat model of amnesia assessed as exploration time for object1 in acquisition trial at 1 mg/kg, po administered as single dose and measured on day 8 by novel object recognition test (reference value: 13.95 sec); type: functional
Rattus norvegicus [31] = assay: Memory enhancement effect in scopolamine-induced Wistar rat model of amnesia assessed as exploration time for object2 in acquisition trial at 0.15 mg/kg, po administered as single dose and measured on day 8 by novel object recognition test (reference value: 15.63 sec); type: functional
[32] = Drug level in Wistar rat plasma at 0.05 mg/kg, po; type: ADME, organism-based; conditions: in vivo
[33] = Ratio of Cmax in brain to plasma in Wistar rat at 10 mg/kg, po after 144 hrs by LC-MS/MS analysis; type: ADME, organism-based
Rattus norvegicus [34] = assay: Memory enhancement effect in time-delay induced Wistar rat model of amnesia assessed as increase in exploration time for novel object in retention trial at 1 mg/kg, po administered as single dose and measured on day 9 by novel object recognition test (reference value: 12.06 sec); type: functional
[35] = AUC (0 to 144 hrs) in Wistar rat at 1 mg/kg, iv after 0.083 to 144 hrs by LC-MS/MS analysis; type: ADME, organism-based; set-up: time < 144 hr, dose 1 mg/kg, route intravenous; conditions: in vivo
Rattus norvegicus [36] = assay: Memory enhancement effect in scopolamine-induced Wistar rat model of amnesia assessed as exploration time for object1 in acquisition trial at 0.15 mg/kg, po for 7 days and measured on day 8 by novel object recognition test (reference value: 16.11 sec); type: functional

SMILES: CCC(=O)c1sc(-c2ccc(Cl)cc2)c(C)c1-c1ccc(S(N)(=O)=O)cc1
- Activity_index (Rattus norvegicus [1]): 0.54
- Activity_index (Rattus norvegicus [2]): 0.3
- Activity_index (Rattus norvegicus [3]): 0.45
- Time (Rattus norvegicus [4]): 6.63 s
- concentration at 24 h [5]: 6520 nM
- Activity_index (Rattus norvegicus [6]): 0.56
- Activity_index (Rattus norvegicus [7]): 0.45
- half-life [8]: 54 h
- fraction unbound at 16 h, 5 µM [9]: 0.0015
- half-life [10]: 15.5 to 77 h
- Time (Rattus norvegicus [11]): 15.41 s
- Time (Rattus norvegicus [12]): 6.63 s
- Cmax [13]: 9200 nM
- Activity_index (Rattus norvegicus [14]): 0.56
- Kp at 8 h [15]: 7.7
- AUC(0-t) [16]: 35 µM·h
- concentration at 168 h [17]: 180 nM
- Time (Rattus norvegicus [18]): 12.8 s
- Tmax [19]: 5.2 h
- Time (Rattus norvegicus [20]): 25.56 s
- Time (Rattus norvegicus [21]): 23.96 s
- Activity (Rattus norvegicus [22]): 55.83%
- remaining at 0.5 h, 1 µM [23]: 94%
- concentration at 4 h [24]: 850 nM
- Kp at 24 h [25]: 8.85
- AUC(0-t) [26]: 63 µM·h
- concentration at 168 h [27]: 250 nM
- AUC(0-t) [28]: 282 µM·h
- concentration at 48 h [29]: 5530 nM
- Time (Rattus norvegicus [30]): 23.61 s
- Time (Rattus norvegicus [31]): 13.41 s
- concentration [32]: 40 nM
- Kp at 144 h [33]: 10
- Time (Rattus norvegicus [34]): 25.93 s
- AUC(0-t) at 144 h [35]: 27 µM·h
- Time (Rattus norvegicus [36]): 14.08 s
